Laboratory results published in patent US20170312334A1, “METHODS AND COMPOSITIONS FOR TREATING INFLAMMATORY DISORDERS” (ROGNE BIOSCIENCE INC., priority 2014, published 2017).

Experiments:
NF-κB [1] = test: NF-κB activation assay: camptothecin induced NF-κB nuclear binding; type: cell-based; settings: camptothecin 10 μM to 10 nM
Method: Treatment of the nuclear extract with the p65 antibody results in a significant decrease in NF-κB/DNA binding. As a negative control, cells are left inactivated and nuclear extracts are treated with the NF-κB consensus sequence, illustrating only a slight background level of NT-κB.
Inhibition of camptothecin mediated activation of NF-κB by the agents disclosed herein is as follows: Induction of NF-κB activation can proceed via a wide range of signaling pathways (Delhase et al., Science 284: 309-313 (1999); Karin, Oncogene 18: 6867-6874 (1999)). Inhibition of NF-κB activation can proceed via the inhibition of many different pathways (Epinat and Gilmore, Oncogene 18: 6896-6909 (1999)). […]
Human Jurkat leukemia T-cells (clone E6-1; Amer. Type Culture Collection, Rockville, Md.) are grown in RPMI-1640 Media (Gibco-BRL, Rockville, Md.) supplemented with 10% fetal bovine serum, penicillin (614 ng/mL), streptomycin (10 μg/mL) and HEPES buffer, pH 7.2 at 37° C., 5% CO2. […] The protein concentration of the extracts is determined according to the Method of Bradford (1976) with BioRad reagents. […] After electrophoresis the gel is analyzed using a phosphorimager (Biorad FX plus) for detection of the NF-κB-DNA binding.

[2] = tested on: imiquimod-induced dermal inflammation; test: Imiquimod-induced psoriasis-like skin inflammation model in mice; settings: topically applied, in vivo, mice (FIG. 15)
Method: Psoriasis is induced by imiquimod applied to the back and ears of the test animals. The initial signs of the disease are observed within 5-6 days as redness and the appearance of plaque type psoriasis, and the disease progresses onto the entire back of the animal.
The study is carried out on female BALC/c mice, 9-10 weeks old at study initiation. […] The animals are divided into group 1 (naïve), group 2 (vehicle+IMQ), group 3 (C15 peptide test agent+IMQ) and group 4 (C15 peptide test agent+IMQ).
The animals are examined for signs of psoriasis on study day 1. These scores served as a baseline for the psoriasis clinical score parameter. Starting from IMQ cream application on day 1, psoriasis responses are examined from day 5 until termination of the study.
Psoriasis reactions (erythema and plaques) are scored and recorded. For plaques, a scale of 0-7 is used with 0 being normal and 7 being no fur with small red dots covering 50%-100% of the back. For erythema, a scale of 0-4 is used with 0 being normal and 4 being very marked. The clinical score is determined by summing the score of each section. The final psoriasis score is the sum of the erythema score and the plaques score.
Right ear thickness is measured before psoriasis induction on study day 1 (baseline). […] Right ear thickness is then measured on study days 5, 8 and 10 (study termination). […]

RANTES [3] = test: Newly synthesized RANTES in human macrophages (FIG. 18C); type: cell-based
NF-κB [4] = test: Modulation of NF-κB activity compared with steroid (FIG. 17); type: cell-based; settings: FIG. 17A/17B
[5] = tested on: NF-κB-regulated cytokines; test: Secretion of NF-κB-regulated cytokines by mouse macrophages (FIG. 18B); type: cell-based
TNFα = test: Inhibition of LPS/IFNγ-induced cytokine expression (TNFα); type: cell-based
RANTES [6] = test: Inhibition of LPS/IFNγ-induced cytokine expression (RANTES); type: cell-based

CC[C@@]1(O)C(=O)OCc2c1cc1n(c2=O)Cc2cc3ccccc3nc2-1 [camptothecin]
NF-κB/DNA binding due to NF-κB activation (NF-κB [1]): significant amount of NF-κB/DNA binding

AGEDPHSFYFPGQFA (listed as Homo sapiens) [human C15 peptide]
imiquimod-induced dermal inflammation [2]: reduces imiquimod-induced dermal inflammation in vivo in a dose dependent manner | reduction of newly synthesized RANTES (RANTES [3]; human macrophages (FIG. 18C)): > 90% | potency relative to steroid (Dex) (RANTES [3]; human macrophages, RANTES (FIG. 18C)): 10^6 time | NF-κB activity modulation relative to steroid (NF-κB [4]): modulates NF-κB activity more potently than steroid | secretion of NF-κB-regulated cytokines [5]: reduced

NNNNNNNNNN
Percent Inhibition of LPS/IFNγ-induced Cytokine Expression (TNFα): 1% | Percent Inhibition of LPS/IFNγ-induced Cytokine Expression (RANTES [6]): 0%
